According to patent publication US9688710B2, “Inhibitors of sodium glucose cotransporter 1” (LEXICON PHARMACEUTICALS, INC., priority 2012, dated 2017):
pIC50: −log10 of the molar value.

What was measured:
[1] = target: Human sodium/glucose co-transporter type 1 (SGLT1) (Homo sapiens (Human), UniProt P13866); test: In vitro human SGLT1 inhibition assay (14C-AMG uptake); assay type: cell-based; settings: HEK293 cells expressing human HA-SGLT1, 14C-AMG uptake
Summary of the method: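 Uptake of 14C-AMG (100 nCi) was measured by scintillation counting after 1–2 h at 37 °C, 5% CO2, with or without compound. The buffer was pH 7.3 with 140 mM NaCl, 1 mM CaCl2, 1 mM MgCl2 and 1 mg/mL BSA. Cells were a stable HEK293 line carrying HA-SGLT1 (human), plated overnight at 30,000 per well.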

[2] = target: Human sodium/glucose co-transporter type 2 (SGLT2) (Homo sapiens (Human), UniProt P31639); test: In vitro human SGLT2 inhibition assay (14C-AMG uptake); assay type: cell-based; settings: HEK293 cells expressing human HA-SGLT2, 14C-AMG uptake
Human sodium/glucose co-transporter type 2 (SGLT2), sequence (P31639 whole entry): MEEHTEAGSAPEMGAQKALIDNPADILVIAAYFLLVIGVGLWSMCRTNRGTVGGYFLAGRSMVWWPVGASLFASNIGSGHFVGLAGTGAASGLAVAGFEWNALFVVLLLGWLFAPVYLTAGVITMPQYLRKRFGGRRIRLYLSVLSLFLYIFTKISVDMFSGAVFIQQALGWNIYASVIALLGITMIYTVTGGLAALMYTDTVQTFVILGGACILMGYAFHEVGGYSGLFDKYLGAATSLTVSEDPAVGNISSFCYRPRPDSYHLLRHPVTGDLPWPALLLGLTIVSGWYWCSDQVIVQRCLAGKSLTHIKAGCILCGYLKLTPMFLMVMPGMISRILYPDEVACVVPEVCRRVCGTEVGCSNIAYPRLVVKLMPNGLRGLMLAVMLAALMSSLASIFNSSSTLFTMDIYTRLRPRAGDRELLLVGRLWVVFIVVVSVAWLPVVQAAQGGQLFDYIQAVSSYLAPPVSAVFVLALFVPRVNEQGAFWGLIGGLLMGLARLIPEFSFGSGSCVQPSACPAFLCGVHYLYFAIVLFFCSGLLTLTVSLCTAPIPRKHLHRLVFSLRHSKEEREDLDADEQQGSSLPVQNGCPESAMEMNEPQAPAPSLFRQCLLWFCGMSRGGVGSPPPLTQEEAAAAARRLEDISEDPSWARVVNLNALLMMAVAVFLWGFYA
Summary of the method: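 Uptake of 14C-AMG (100 nCi) was followed in a stable HEK293 HA-SGLT2 line over 1-2 h at 37 °C with or without compound. Buffer: 140 mM NaCl, 10 mM HEPES, 5 mM Tris, 1 mg/mL BSA, pH 7.3. Readout was scintillation counting after washing.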

Human sodium/glucose co-transporter type 1 (SGLT1), sequence (P13866 whole entry): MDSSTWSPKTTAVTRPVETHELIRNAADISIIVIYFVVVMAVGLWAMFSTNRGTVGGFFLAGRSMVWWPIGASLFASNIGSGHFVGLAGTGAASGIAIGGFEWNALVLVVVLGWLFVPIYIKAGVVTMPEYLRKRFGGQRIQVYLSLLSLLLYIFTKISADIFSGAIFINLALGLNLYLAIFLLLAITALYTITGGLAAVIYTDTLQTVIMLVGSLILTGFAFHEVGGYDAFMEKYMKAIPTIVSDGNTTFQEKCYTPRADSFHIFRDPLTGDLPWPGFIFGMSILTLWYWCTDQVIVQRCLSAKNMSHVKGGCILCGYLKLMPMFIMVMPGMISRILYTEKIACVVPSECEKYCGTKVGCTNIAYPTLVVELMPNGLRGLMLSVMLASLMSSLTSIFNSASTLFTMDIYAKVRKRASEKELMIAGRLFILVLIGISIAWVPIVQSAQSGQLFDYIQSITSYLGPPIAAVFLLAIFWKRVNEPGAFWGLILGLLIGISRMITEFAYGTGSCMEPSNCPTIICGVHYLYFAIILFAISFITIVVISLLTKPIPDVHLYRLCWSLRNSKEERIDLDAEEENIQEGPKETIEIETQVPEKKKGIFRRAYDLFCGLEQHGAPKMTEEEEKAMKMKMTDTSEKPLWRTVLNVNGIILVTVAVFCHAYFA

Row | pIC50 [1] | pIC50 [2] | SMILES
1 | > 7.00 | > 8.00 | CS[C@H]1O[C@@H](c2ccc(C)c(Cc3ccc(/C=C/CC(C(=O)NC(C)(C)C(N)=O)C(=O)NC(C)(C)C(N)=O)cc3)c2)[C@H](O)[C@@H](O)[C@@H]1O [N1,N3-bis(1-amino-2-methyl-1-oxopropan-2-yl)-2-((E)-3-(4-(2-methyl-5-((2S,3R,4R,5S,6R)-3,4,5-trihydroxy-6-(methylthio)tetrahydro-2H-pyran-2-yl)benzyl)phenyl)allyl)malonamide]
2 | > 7.00 | > 8.00 | CS[C@H]1O[C@@H](c2ccc(C)c(Cc3ccc(OCC(=O)NC(CO)(CO)CO)cc3)c2)[C@H](O)[C@@H](O)[C@@H]1O [N-(1,3-dihydroxy-2-(hydroxymethyl)propan-2-yl)-2-(4-(2-methyl-5-((2S,3R,4R,5S,6R)-3,4,5-trihydroxy-6-(methylthio)tetrahydro-2H-pyran-2-yl)benzyl)phenoxy)acetamide]
3 | > 8.00 | > 8.00 | CS[C@H]1O[C@@H](c2ccc(C)c(Cc3ccc(OCCCC(=O)NC(CO)(CO)CO)cc3)c2)[C@H](O)[C@@H](O)[C@@H]1O [N-(1,3-dihydroxy-2-(hydroxymethyl)propan-2-yl)-4-(4-(2-methyl-5-((2S,3R,4R,5S,6R)-3,4,5-trihydroxy-6-(methylthio)tetrahydro-2H-pyran-2-yl)benzyl)phenoxy)butanamide]
4 | > 8.00 | > 8.00 | CS[C@H]1O[C@@H](c2ccc(C)c(Cc3ccc(CCCC(=O)NC(CO)(CO)CO)cc3)c2)[C@H](O)[C@@H](O)[C@@H]1O [N-(1,3-dihydroxy-2-(hydroxymethyl)propan-2-yl)-4-(4-(2-methyl-5-((2S,3R,4R,5S,6R)-3,4,5-trihydroxy-6-(methylthio)tetrahydro-2H-pyran-2-yl)benzyl)phenyl)butanamide]
5 | > 8.00 | > 8.00 | CS[C@H]1O[C@@H](c2ccc(C)c(Cc3ccc(CCCCC(=O)NC(CO)(CO)CO)cc3)c2)[C@H](O)[C@@H](O)[C@@H]1O [N-(1,3-dihydroxy-2-(hydroxymethyl)propan-2-yl)-5-(4-(2-methyl-5-((2S,3R,4R,5S,6R)-3,4,5-trihydroxy-6-(methylthio)tetrahydro-2H-pyran-2-yl)benzyl)phenyl)pentanamide]
6 | > 7.00 | > 8.00 | CS[C@H]1O[C@@H](c2ccc(C)c(Cc3ccc(CCCCCC(=O)NC(CO)(CO)CO)cc3)c2)[C@H](O)[C@@H](O)[C@@H]1O [N-(1,3-dihydroxy-2-(hydroxymethyl)propan-2-yl)-6-(4-(2-methyl-5-((2S,3R,4R,5S,6R)-3,4,5-trihydroxy-6-(methylthio)tetrahydro-2H-pyran-2-yl)benzyl)phenyl)hexanamide]
7 | > 7.00 | > 8.00 | CS[C@H]1O[C@@H](c2ccc(C)c(Cc3ccc(CCCCCCC(=O)NC(CO)(CO)CO)cc3)c2)[C@H](O)[C@@H](O)[C@@H]1O [N-(1,3-dihydroxy-2-(hydroxymethyl)propan-2-yl)-7-(4-(2-methyl-5-((2S,3R,4R,5S,6R)-3,4,5-trihydroxy-6-(methylthio)tetrahydro-2H-pyran-2-yl)benzyl)phenyl)heptanamide]
8 | > 7.00 | > 7.00 | CS[C@H]1O[C@@H](c2ccc(C)c(Cc3ccc(OCCCC(=O)NC(C)(CO)CO)cc3)c2)[C@H](O)[C@@H](O)[C@@H]1O [N-(1,3-dihydroxy-2-methylpropan-2-yl)-4-(4-(2-methyl-5-((2S,3R,4R,5S,6R)-3,4,5-trihydroxy-6-(methylthio)tetrahydro-2H-pyran-2-yl)benzyl)phenoxy)butanamide]
9 | > 8.00 | > 8.00 | CS[C@H]1O[C@@H](c2ccc(C)c(Cc3ccc(OCCCC(=O)NC(CO)CO)cc3)c2)[C@H](O)[C@@H](O)[C@@H]1O [N-(1,3-dihydroxypropan-2-yl)-4-(4-(2-methyl-5-((2S,3R,4R,5S,6R)-3,4,5-trihydroxy-6-(methylthio)tetrahydro-2H-pyran-2-yl)benzyl)phenoxy)butanamide]
10 | > 8.00 | > 8.00 | CS[C@H]1O[C@@H](c2ccc(C)c(Cc3ccc(CCCC(=O)NC(C)(C)C(=O)N4CCN(CCO)CC4)cc3)c2)[C@H](O)[C@@H](O)[C@@H]1O [N-(1-(4-(2-hydroxyethyl)piperazin-1-yl)-2-methyl-1-oxopropan-2-yl)-4-(4-(2-methyl-5-((2S,3R,4R,5S,6R)-3,4,5-trihydroxy-6-(methylthio)tetrahydro-2H-pyran-2-yl)benzyl)phenyl)butanamide]
11 | > 7.00 | > 8.00 | CS[C@H]1O[C@@H](c2ccc(C)c(Cc3ccc(OCCCC(=O)NC(C)(C)C(=O)N(C)CCN(C)C)cc3)c2)[C@H](O)[C@@H](O)[C@@H]1O [N-(1-((2-(dimethylamino)ethyl)(methyl)amino)-2-methyl-1-oxopropan-2-yl)-4-(4-(2-methyl-5-((2S,3R,4R,5S,6R)-3,4,5-trihydroxy-6-(methylthio)tetrahydro-2H-pyran-2-yl)benzyl)phenoxy)butanamide]
12 | > 8.00 | > 8.00 | CS[C@H]1O[C@@H](c2ccc(C)c(Cc3ccc(CCCC(=O)NC(C)(C)C(=O)N(C)CCN(C)C)cc3)c2)[C@H](O)[C@@H](O)[C@@H]1O [N-(1-((2-(dimethylamino)ethyl)(methyl)amino)-2-methyl-1-oxopropan-2-yl)-4-(4-(2-methyl-5-((2S,3R,4R,5S,6R)-3,4,5-trihydroxy-6-(methylthio)tetrahydro-2H-pyran-2-yl)benzyl)phenyl)butanamide]
13 | > 8.00 | > 8.00 | CS[C@H]1O[C@@H](c2ccc(C)c(Cc3ccc(OCCCC(=O)NC(C)(C)C(=O)NCCN(C)C)cc3)c2)[C@H](O)[C@@H](O)[C@@H]1O [N-(1-((2-(dimethylamino)ethyl)amino)-2-methyl-1-oxopropan-2-yl)-4-(4-(2-methyl-5-((2S,3R,4R,5S,6R)-3,4,5-trihydroxy-6-(methylthio)tetrahydro-2H-pyran-2-yl)benzyl)phenoxy)butanamide]
14 | > 8.00 | > 8.00 | CS[C@H]1O[C@@H](c2ccc(C)c(Cc3ccc(CCCC(=O)NC(C)(C)C(=O)NCCN(C)C)cc3)c2)[C@H](O)[C@@H](O)[C@@H]1O [N-(1-((2-(dimethylamino)ethyl)amino)-2-methyl-1-oxopropan-2-yl)-4-(4-(2-methyl-5-((2S,3R,4R,5S,6R)-3,4,5-trihydroxy-6-(methylthio)tetrahydro-2H-pyran-2-yl)benzyl)phenyl)butanamide]
15 | > 8.00 | > 8.00 | CS[C@H]1O[C@@H](c2ccc(Cl)c(Cc3ccc(OCCCC(=O)N(C)C(C)(C)C(N)=O)cc3)c2)[C@H](O)[C@@H](O)[C@@H]1O [N-(1-amino-2-methyl-1-oxopropan-2-yl)-4-(4-(2-chloro-5-((2S,3R,4R,5S,6R)-3,4,5-trihydroxy-6-(methylthio)tetrahydro-2H-pyran-2-yl)benzyl)phenoxy)-N-methylbutanamide]
16 | > 8.00 | > 8.00 | CS[C@H]1O[C@@H](c2ccc(Cl)c(Cc3ccc(OCCCC(=O)NC(C)(C)C(N)=O)cc3)c2)[C@H](O)[C@@H](O)[C@@H]1O [N-(1-amino-2-methyl-1-oxopropan-2-yl)-4-(4-(2-chloro-5-((2S,3R,4R,5S,6R)-3,4,5-trihydroxy-6-(methylthio)tetrahydro-2H-pyran-2-yl)benzyl)phenoxy)butanamide]
17 | > 8.00 | > 8.00 | CS[C@H]1O[C@@H](c2ccc(C)c(Cc3ccc(OCCCC(=O)NC(C)(C)C(N)=O)cc3)c2)[C@H](O)[C@@H](O)[C@@H]1O [N-(1-amino-2-methyl-1-oxopropan-2-yl)-4-(4-(2-methyl-5-((2S,3R,4R,5S,6R)-3,4,5-trihydroxy-6-(methylthio)tetrahydro-2H-pyran-2-yl)benzyl)phenoxy)butanamide]
18 | > 8.00 | > 8.00 | CS[C@H]1O[C@@H](c2ccc(C)c(Cc3ccc(CCCC(=O)NC(C)(C)C(N)=O)cc3)c2)[C@H](O)[C@@H](O)[C@@H]1O [N-(1-amino-2-methyl-1-oxopropan-2-yl)-4-(4-(2-methyl-5-((2S,3R,4R,5S,6R)-3,4,5-trihydroxy-6-(methylthio)tetrahydro-2H-pyran-2-yl)benzyl)phenyl)butanamide]
19 | > 8.00 | > 8.00 | CS[C@H]1O[C@@H](c2ccc(C)c(Cc3ccc(CCCCC(=O)NC(C)(C)C(N)=O)cc3)c2)[C@H](O)[C@@H](O)[C@@H]1O [N-(1-amino-2-methyl-1-oxopropan-2-yl)-5-(4-(2-methyl-5-((2S,3R,4R,5S,6R)-3,4,5-trihydroxy-6-(methylthio)tetrahydro-2H-pyran-2-yl)benzyl)phenyl)pentanamide]
20 | > 7.00 | > 8.00 | CS[C@H]1O[C@@H](c2ccc(C)c(Cc3ccc(CCCCCC(=O)NC(C)(C)C(N)=O)cc3)c2)[C@H](O)[C@@H](O)[C@@H]1O [N-(1-amino-2-methyl-1-oxopropan-2-yl)-6-(4-(2-methyl-5-((2S,3R,4R,5S,6R)-3,4,5-trihydroxy-6-(methylthio)tetrahydro-2H-pyran-2-yl)benzyl)phenyl)hexanamide]
21 | > 7.00 | > 8.00 | CS[C@H]1O[C@@H](c2ccc(C)c(Cc3ccc(CCCCCCC(=O)NC(C)(C)C(N)=O)cc3)c2)[C@H](O)[C@@H](O)[C@@H]1O [N-(1-amino-2-methyl-1-oxopropan-2-yl)-7-(4-(2-methyl-5-((2S,3R,4R,5S,6R)-3,4,5-trihydroxy-6-(methylthio)tetrahydro-2H-pyran-2-yl)benzyl)phenyl)heptanamide]
